Experimental findings from article PMC9776291 (Biomolecules, 2022) are described below.

Common to all, as to assay type: cell-based
In one assay the target is T1, GLUT2 (Homo sapiens, UniProt P11168).
T1 construct: gene SLC2A2
T1 sequence (P11168 1-524): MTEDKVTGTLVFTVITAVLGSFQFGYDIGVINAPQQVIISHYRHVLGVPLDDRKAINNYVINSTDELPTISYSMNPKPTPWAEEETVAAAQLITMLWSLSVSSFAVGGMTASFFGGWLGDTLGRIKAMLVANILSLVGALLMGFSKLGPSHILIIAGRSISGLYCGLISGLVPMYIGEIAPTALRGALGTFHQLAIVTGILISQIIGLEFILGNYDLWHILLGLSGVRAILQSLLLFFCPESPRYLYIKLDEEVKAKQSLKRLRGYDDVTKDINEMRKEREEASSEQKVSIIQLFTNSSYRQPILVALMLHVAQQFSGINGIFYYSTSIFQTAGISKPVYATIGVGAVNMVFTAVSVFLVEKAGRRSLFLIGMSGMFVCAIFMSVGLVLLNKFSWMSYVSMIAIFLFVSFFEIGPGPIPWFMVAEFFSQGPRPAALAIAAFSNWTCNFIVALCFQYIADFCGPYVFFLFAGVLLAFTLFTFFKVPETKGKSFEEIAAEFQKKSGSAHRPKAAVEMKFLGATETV
The assay is described as follows: [3H]-2-deoxyglucose uptake in GLUT-expressing HEK293 cells. As to conditions: 50 µM 2-deoxyglucose, 4 min; pH 7.3; labelled compound.

In a further assay the target is T2, GLUT10 (Homo sapiens, UniProt O95528).
T2 construct: gene SLC2A10
T2 sequence (O95528 1-541): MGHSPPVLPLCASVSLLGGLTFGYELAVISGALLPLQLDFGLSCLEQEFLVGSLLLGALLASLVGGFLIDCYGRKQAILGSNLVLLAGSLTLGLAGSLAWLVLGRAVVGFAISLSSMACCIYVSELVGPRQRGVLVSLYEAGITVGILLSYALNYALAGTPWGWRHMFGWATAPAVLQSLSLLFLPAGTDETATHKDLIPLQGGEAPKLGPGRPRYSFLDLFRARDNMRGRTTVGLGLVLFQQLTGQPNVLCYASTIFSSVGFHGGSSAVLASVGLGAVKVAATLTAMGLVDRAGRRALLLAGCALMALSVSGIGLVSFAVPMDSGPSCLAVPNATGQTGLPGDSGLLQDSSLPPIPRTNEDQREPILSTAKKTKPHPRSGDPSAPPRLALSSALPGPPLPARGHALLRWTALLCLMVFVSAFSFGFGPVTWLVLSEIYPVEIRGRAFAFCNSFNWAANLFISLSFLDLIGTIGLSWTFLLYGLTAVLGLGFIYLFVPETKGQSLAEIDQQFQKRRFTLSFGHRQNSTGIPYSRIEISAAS
Described as above.

The next assay addresses T3, GLUT4 (Homo sapiens, UniProt P14672).
T3 construct: gene SLC2A4
T3 sequence (P14672 1-509): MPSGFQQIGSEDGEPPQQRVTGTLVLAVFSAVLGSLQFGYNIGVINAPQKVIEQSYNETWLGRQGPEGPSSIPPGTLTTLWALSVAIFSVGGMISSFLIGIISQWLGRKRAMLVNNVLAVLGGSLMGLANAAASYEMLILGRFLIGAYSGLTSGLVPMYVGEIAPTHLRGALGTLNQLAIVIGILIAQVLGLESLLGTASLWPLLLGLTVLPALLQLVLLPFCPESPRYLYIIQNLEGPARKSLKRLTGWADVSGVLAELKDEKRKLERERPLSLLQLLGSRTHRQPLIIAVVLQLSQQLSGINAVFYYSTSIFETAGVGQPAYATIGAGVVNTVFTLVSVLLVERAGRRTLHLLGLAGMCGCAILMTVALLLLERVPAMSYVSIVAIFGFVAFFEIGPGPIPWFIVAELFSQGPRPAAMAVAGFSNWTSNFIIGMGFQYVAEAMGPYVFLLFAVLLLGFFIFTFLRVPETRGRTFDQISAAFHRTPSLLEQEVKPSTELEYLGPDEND
The description is as above.

A further assay concerns the target T4, GLUT6 (Homo sapiens, UniProt Q9UGQ3).
T4 construct: gene SLC2A6
T4 sequence (Q9UGQ3 1-507): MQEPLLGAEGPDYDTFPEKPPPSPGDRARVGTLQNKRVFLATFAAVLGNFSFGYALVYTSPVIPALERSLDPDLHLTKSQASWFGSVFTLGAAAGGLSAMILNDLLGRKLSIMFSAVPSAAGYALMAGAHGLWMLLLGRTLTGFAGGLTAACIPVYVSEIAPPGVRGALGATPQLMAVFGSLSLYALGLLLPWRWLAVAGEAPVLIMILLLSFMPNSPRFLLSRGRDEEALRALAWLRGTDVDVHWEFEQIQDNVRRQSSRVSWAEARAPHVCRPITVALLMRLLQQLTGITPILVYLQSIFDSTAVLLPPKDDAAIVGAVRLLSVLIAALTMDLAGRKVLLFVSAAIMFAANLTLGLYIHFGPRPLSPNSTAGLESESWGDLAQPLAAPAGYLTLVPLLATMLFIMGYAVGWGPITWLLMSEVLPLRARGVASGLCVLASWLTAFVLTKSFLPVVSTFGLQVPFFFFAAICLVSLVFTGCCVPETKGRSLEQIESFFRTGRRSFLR
Described as above.

Another assay deals with T5, GLUT5 (Homo sapiens, UniProt P22732).
T5 construct: gene SLC2A5
T5 sequence (P22732 1-501): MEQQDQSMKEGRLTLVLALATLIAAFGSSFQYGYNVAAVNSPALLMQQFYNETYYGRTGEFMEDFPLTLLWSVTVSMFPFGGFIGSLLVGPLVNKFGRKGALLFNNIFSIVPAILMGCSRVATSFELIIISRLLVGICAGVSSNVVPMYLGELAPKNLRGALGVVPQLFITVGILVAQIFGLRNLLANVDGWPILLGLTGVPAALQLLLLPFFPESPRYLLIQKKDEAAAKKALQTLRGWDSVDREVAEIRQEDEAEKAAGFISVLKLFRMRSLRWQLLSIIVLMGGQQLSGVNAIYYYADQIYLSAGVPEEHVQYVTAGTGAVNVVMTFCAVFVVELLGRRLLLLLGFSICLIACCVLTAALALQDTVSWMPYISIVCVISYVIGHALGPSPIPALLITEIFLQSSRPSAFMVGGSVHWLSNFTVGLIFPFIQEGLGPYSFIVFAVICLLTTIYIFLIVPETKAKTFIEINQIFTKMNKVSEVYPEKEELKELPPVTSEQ
Put plainly: [3H]-D-fructose uptake in GLUT-expressing HEK293 cells. The note with it: 4 µM fructose, 2 min; pH 7.3; labelled compound.

`OC[C@H]1OC(O)C[C@@H](O)[C@@H]1O` (some centres unmarked) [[^3H]-2-deoxyglucose]: at GLUT2, the “[3H]-2-deoxyglucose uptake in GLUT-expressing HEK293 cells” value is recorded as “HEK293 cells that stably express human GLUT transporters were incubated”.
`Cc1c(NC(=O)c2cc(C(N)=O)nc3cc(F)ccc23)c(C(F)(F)F)nn1Cc1ccc(C#N)cc1` [BAY-876]: the IC50 (as a rule, the midpoint of a concentration-inhibition curve) against GLUT10 came to 1.7 µM; at GLUT4, 5.4 µM; against GLUT6, 2.2 µM.
Regarding `OCC1(O)OC[C@@H](O)[C@@H](O)[C@@H]1O` (stereo partly drawn) [[^3H]-D-fructose], the “[3H]-D-fructose uptake in GLUT-expressing HEK293 cells” value on GLUT5 was “Fructose transport through GLUT5 was not impaired by BAY-876”.
